Data from patent publication US5075287A, “Muramyl peptide derivatives and immunoregulating compositions containing them” (priority 1989, dated 1991).
Read-outs that look alike come from different tables or passages of the source.

How the values were obtained:
[1] = test system: hepatitis B virus surface antigen (HBs); assay: Hepatitis-vaccine enhancing activity (adjuvant activity): anti-HBs IgG in mouse serum by ELISA; assay type: in vivo, female CDF1 mice; conditions: Experiment 1, 5000-fold dilution
Method in brief: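 Female CDF1 mice (n=7) given 0.2 ml i.p. of compound in lipid microspheres (1 mg/ml) mixed 1:1 with HBs antigen (50 μg/ml), boosted identically at 3 weeks. Sera from weekly fundus bleeds before and after boost. Anti-HBs IgG measured by ELISA.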

[2] = test system: influenza HA vaccine (B/Nagasaki/1/87 strain); assay type: in vivo, female CDF1 mice; conditions: Experiment 1, 5000-fold dilution
[3] = test system: L-1210 mouse leukemia cells; assay: Activation of macrophages (growth inhibition of tumor cells by intraperitoneal macrophages of treated mice, MTT assay); assay type: cell-based; conditions: macrophages taken 3 days after i.p. 0.2 ml of 500 μg/ml, macrophage:L-1210 20:1, 72 hours
Description: A compound of the present invention was dissolved in lipidmicrosphere to obtain a solution in a concentration of 500μg/ml, and 0.2 ml of such solution was intraperitoneally administered to each mouse in one group consisting of seven female CDF1 mice. Intraperitoneal macrophages obtained three days after the administration and L-1210 mouse leukemia cells were mixed in the ratio of cell numbers of 20:1, respectively. Two hundred μl of the mixture was placed in each well of one sheet of 96 well microtiter plate. After 72 hours, the increase of the cell number in each well was determined by a MTT assay method. The ratio of the cell number for the mixture of the L-1210 cells and the macrophage relative to the cell number for the L-1210 cells only(growth inhibitory ratio) was determined, and the results are shown in Table 3.

[4] = 1 W after i.p. administration, compound in lipidmicrosphere + HBs
[5] = 4 W (after secondary stimulation at 3 weeks)
[6] = 5 W (after secondary stimulation at 3 weeks)
[7] = 1 W after i.p. administration, compound in lipidmicrosphere + HA vaccine

SMILES	Anti-HBs IgG antibody level in serum (ELISA absorbance at 415 nm) [1, 4]	Anti-HBs IgG antibody level in serum (ELISA absorbance at 415 nm) ([1]; 2 W)	Anti-HBs IgG antibody level in serum (ELISA absorbance at 415 nm) ([1]; 3 W)	Anti-HBs IgG antibody level in serum (ELISA absorbance at 415 nm) [1, 5]	Anti-HBs IgG antibody level in serum (ELISA absorbance at 415 nm) [1, 6]	Anti HA serum antigen value (average value ± S.D.) [2, 7]	Anti HA serum antigen value (average value ± S.D.) ([2]; 2 W)	Anti HA serum antigen value (average value ± S.D.) ([2]; 3 W)	Anti HA serum antigen value (average value ± S.D.) [2, 5]	Anti HA serum antigen value (average value ± S.D.) [2, 6]	Growth inhibitory ratio of L-1210 mouse leukemia cells [3]
CCCCCCCCCCCCCCC(CCCCCCCCCCCCCC)C(=O)O[C@H]1O[C@H](COC(=O)CCCCCCCCC)[C@@H](O)[C@H](O[C@H](C)C(=O)N[C@@H](C)C(=O)N[C@H](CCC(=O)OC)C(N)=O)[C@H]1NC(C)=O [Example 5]	0.001 ± 0.001 O.D 415 nm	0.021 ± 0.001 O.D 415 nm	0.048 ± 0.001 O.D 415 nm	0.643 ± 0.013 O.D 415 nm	0.490 ± 0.009 O.D 415 nm	0 O.D 415 nm	0.091 ± 0.002 O.D 415 nm	0.377 ± 0.001 O.D 415 nm	1.037 ± 0.027 O.D 415 nm	1.068 ± 0.004 O.D 415 nm	57.8%
CCCCCCCCCCCCCC(=O)O[C@H](CCCCCCCCCCC)CC(=O)O[C@H]1O[C@H](COC(=O)CCCCCCCCC)[C@@H](O)[C@H](O[C@H](C)C(=O)N[C@@H](C)C(=O)N[C@H](CCC(=O)OC)C(N)=O)[C@H]1NC(C)=O [Example 11, N-[2-0-{2-Acetamido-2,3-dideoxy-6-0-decanoyl-1-0((3R)-3-tetradecanoyloxytetradecanoyl)-α-D-glucopyranos-3-yl}-D-lactoyl]-L-alanyl-D-isoglutaminemethylester]	0.010 ± 0.002 O.D 415 nm	0.083 ± 0.002 O.D 415 nm	0.124 ± 0.003 O.D 415 nm	0.602 ± 0.009 O.D 415 nm	0.716 ± 0.020 O.D 415 nm	0 O.D 415 nm	0.073 ± 0.000 O.D 415 nm	0.160 ± 0.005 O.D 415 nm	1.059 ± 0.016 O.D 415 nm	1.050 ± 0.003 O.D 415 nm	59.7%
CCCCCCCCCCCCCCC(CCCCCCCCCCCCCC)C(=O)O[C@H]1O[C@H](CO)[C@@H](O)[C@H](O[C@H](C)C(=O)N[C@@H](C)C(=O)N[C@H](CCC(=O)OC)C(N)=O)[C@H]1NC(C)=O [Example 1]	0.001 ± 0.001 O.D 415 nm	0.018 ± 0.000 O.D 415 nm	0.074 ± 0.002 O.D 415 nm	0.815 ± 0.011 O.D 415 nm	0.843 ± 0.005 O.D 415 nm	0.007 ± 0.003 O.D 415 nm	0.174 ± 0.003 O.D 415 nm	0.232 ± 0.003 O.D 415 nm	1.243 ± 0.036 O.D 415 nm	1.201 ± 0.002 O.D 415 nm	40.0%
CCCCCCCCCCCCCC(=O)O[C@H](CCCCCCCCCCC)CC(=O)O[C@H]1O[C@H](CO)[C@@H](O)[C@H](O[C@H](C)C(=O)N[C@@H](C)C(=O)N[C@H](CCC(=O)OC)C(N)=O)[C@H]1NC(C)=O [Example 3, N-[2-0-{2-Acetamido-2,3-dideoxy-1-0-((3R)-3-tetradecanoyloxytetradecanoyl)-α-D-glucopyranos-3-yl}-D-lactoyl]-L-alanyl-D-isoglutamine methylester]	0 O.D 415 nm	0.027 ± 0.001 O.D 415 nm	0.064 ± 0.003 O.D 415 nm	0.631 ± 0.006 O.D 415 nm	0.692 ± 0.009 O.D 415 nm	0.009 ± 0.000 O.D 415 nm	0.182 ± 0.003 O.D 415 nm	0.292 ± 0.004 O.D 415 nm	0.122 ± 0.020 O.D 415 nm	1.140 ± 0.013 O.D 415 nm	42.6%
CCCCCCCCCCCCCCCCCC(=O)OC[C@H]1O[C@@H](SC(=O)C(CCCCCCCCCCCCCC)CCCCCCCCCCCCCC)[C@H](NC(C)=O)[C@@H](O[C@H](C)C(=O)N[C@@H](C)C(=O)N[C@H](CCC(=O)OC)C(N)=O)[C@@H]1O [Example 10, N-[2-0-{2-Acetamido-2,3-dideoxy-6-0-octadecanoyl-1-S-(2-tetradecylhexadecanoyl)-1-thio-β-D-glucopyranos-3-yl}-D-lactoyl]-L-alanyl-D-isoglutamine methylester]	0 O.D 415 nm	0.061 ± 0.002 O.D 415 nm	0.114 ± 0.003 O.D 415 nm	0.778 ± 0.024 O.D 415 nm	0.878 ± 0.009 O.D 415 nm	0.005 ± 0.001 O.D 415 nm	0.153 ± 0.003 O.D 415 nm	0.280 ± 0.000 O.D 415 nm	1.149 ± 0.018 O.D 415 nm	1.203 ± 0.014 O.D 415 nm	76.6%
CCCCCCCCCCCCCC(=O)O[C@H](CCCCCCCCCCC)CC(=O)S[C@@H]1O[C@H](COC(=O)CCCCCCCCC)[C@@H](O)[C@H](O[C@H](C)C(=O)N[C@@H](C)C(=O)N[C@H](CCC(=O)OC)C(N)=O)[C@H]1NC(C)=O [Example 14, N-[2-0-{2-Acetamido-2,3-dideoxy-6-0-decanoyl-1-S-((3R)-R-tetradecanoyloxytetradecanoyl)-1-thio-β-D-glucopyranos-3yl}-D-lactoyl]-L-alanyl-D-isoglutamine methylester]	0 O.D 415 nm	0.071 ± 0.000 O.D 415 nm	0.104 ± 0.003 O.D 415 nm	0.784 ± 0.022 O.D 415 nm	0.846 ± 0.024 O.D 415 nm	0 O.D 415 nm	0.110 ± 0.003 O.D 415 nm	0.186 ± 0.007 O.D 415 nm	0.974 ± 0.006 O.D 415 nm	0.954 ± 0.002 O.D 415 nm	96.4%
